Measured values published in the NIST ThermoML archive (doi:10.1021/acs.jced.7b00483).

Assay: molar heat capacity at constant pressure; mn = molality of the nth substance listed, in mol/kg
Details: 100 kPa, Liquid, Flow calorimetry

[Cl][Ni][Cl] [nickel chloride (NiCl2)] + O
molar heat capacity at constant pressure [J/K/mol]
Details	298.15 K	303.15 K	313.15 K	323.15 K	333.15 K	343.15 K	353.15 K	363.15 K
m1 = 0.1432	74.53	74.56	74.64	74.73	74.84	74.97	75.09	75.24
m1 = 0.3571	73.64	73.75	73.98	74.17	74.3	74.41	74.48	74.5
m1 = 0.7035	72.08	72.41	72.91	73.42	73.73	73.92	73.96	73.88
m1 = 0.9968	70.92	71.28	71.88	72.38	72.74	72.98	73.12	73.12
m1 = 1.24	70.61	70.99	71.67	72.22	72.63	72.92	73.06	73.08
m1 = 1.53	70.09	70.49	71.18	71.73	72.15	72.44	72.59	72.59
m1 = 1.874	69.74	70.16	70.89	71.5	71.93	72.23	72.41	72.45
m1 = 2.241	69.49	69.96	70.74	71.39	71.88	72.2	72.37	72.4
m1 = 2.608	69.48	69.99	70.89	71.63	72.2	72.64	72.89	72.98
m1 = 3.614	69.27	69.86	70.88	71.73	72.42	72.94	73.29	73.49
m1 = 4.102	69.42	70.04	71.12	72.02	72.69	73.18	73.48	73.56

[Cl][Cu][Cl] [copper chloride] + O
molar heat capacity at constant pressure [J/K/mol]
Details	298.15 K	303.15 K	313.15 K	323.15 K	333.15 K	343.15 K	353.15 K	363.15 K
m1 = 0.2971	74.06	74.34	74.86	75.29	75.6	75.85	75.98	76.05
m1 = 0.5433	73.82	74.14	74.68	75.1	75.41	75.6	75.69	75.68
m1 = 0.7083	73.51	73.84	74.42	74.85	75.16	75.34	75.34	75.3
m1 = 1.018	73.01	73.37	74	74.48	74.86	75.1	75.24	75.22
m1 = 1.448	72.53	72.93	73.62	74.19	74.61	74.9	75.05	75.05
m1 = 1.899	72.05	72.47	73.19	73.8	74.24	74.59	74.74	74.78
m1 = 2.012	72.27	72.71	73.51	74.13	74.61	74.94	75.12	75.12
m1 = 2.424	72.23	72.74	73.63	74.38	74.96	75.37	75.64	75.73
m1 = 2.954	72.36	72.91	73.85	74.59	75.16	75.52	75.71	75.71
m1 = 3.454	72.47	73.05	74.06	74.93	75.63	76.15	76.52	76.67
m1 = 4.036	72.69	73.32	74.4	75.31	76.01	76.5	76.79	76.89
m1 = 4.452	72.71	73.37	74.54	75.48	76.17	76.62	76.81	76.78
